Test [1] has as its system primary fibroblasts GM00649, GM06225, GM00612, GM00444, GM03672. Put plainly: MMP, ROS and ATP multiplex (ArrayScan). The class given is cell-based. The note with it: Homo sapiens, Fibroblast; Leigh GM03672; procedure Example 838; 50 μM (table line r25); read-out: Decreased ROS by at least 10%. The method, then: Cell culture and treatments. Primary adherent fibroblasts were cultured in minimum essential medium (MEM) (Gibco, 25030081) supplemented with 2 mM L-Glutamine (Gibco, 25030081), 15% fetal bovine serum (FBS) (Gibco, 26400044) and 1% penicillin/streptomycin (Gibco, 5140122) at 37° C. and 5% CO2. Cells were collected for either passaging or experiment at ˜70-80% confluence. Cells were obtained by trypsinization and seeded at 10000 cells/well in cell culture microplates (Seahorse Bioscience, 101085-004) and allowed to adhere for 16 hours in culture media. After media was refreshed with DMEM (Agilent Seahorse 103575-100) supplemented with 1 mM glucose and 10% FBS (Gibco, 26400044). At the end of the incubation period, the cells were loaded with the relevant dye/antibody for each cell health marker. The assay provided simultaneous measurement of cell health parameters including cell count, ROS formation (DHE), mitochondrial membrane potential (MitoTracker®) and cellular ATP content (CellTiter-Glo®, Promega). The plates were then scanned using an automated fluorescent cellular imager, ArrayScan® (Thermo Scientific Cellomics). Assay conditions were optimized by one skilled in the art.
Primary cells used in this example were obtained from Coriell Institute for Medical Research and consisted of GM00649, MSUD (Maple Syrup Urine Disease) Tyle IA; GM06225, Kearns-Sayre Syndrome; GM00612, MSUD (Maple Syrup Urine Disease) Tyle II GM00444, Pyruvate Carboxylase Deficiency and GM03672, Leigh Syndrome.

Test [2] concerns Methylmalonic Acidemia (MMA) primary fibroblasts GM01673. Nature of the test: Mitochondrial respiration, XFe96 Extracellular Flux Analyzer (OCR/ECAR), MMA fibroblasts GM01673. The note with it: Homo sapiens, Fibroblast, assay condition A (10 mM glucose, 2 mM L-glutamine, 1 mM pyruvate, 10% FBS), 50 μM, read-out: Increase in Maximal Respiratory Capacity AUC. The test is classed as cell-based. As for the experimental part: The effect of the compounds of the present disclosure on mitochondrial respiration was measured with a XFe96 Extracellular Flux Analyzer (Seahorse Bioscience, Agilent Technologies) and Oxygen consumption Rate (OCR) and Extracellular acidification rate (ECAR) determined.
Cell culture and treatments. Primary adherent fibroblasts were cultured in minimum essential medium (MEM) (Gibco, 25030081) supplemented with 2 mM L-Glutamine (Gibco, 25030081), 15% fetal bovine serum (FBS) (Gibco, 26400044) and 1% penicillin/streptomycin (Gibco, 5140122) at 37° C. and 5% CO2. Cells were collected for either passaging or experiment at ˜70-80% confluence. Cells were obtained by trypsinization and seeded at 20000 cells/well in cell culture microplates (Seahorse Bioscience, 101085-004) and allowed to adhere for 16 hours in culture media.
By profiling different primary cells and/or optimizing their culture media or environmental components one can select cell lines and/or conditions that are appropriate for the biological or disease model. In the present example, 24 hours prior to OCR and ECAR profiling, media was changed to Dulbecco's Modified Eagle Medium (DMEM, Agilent Seahorse 103575-100) with the appropriate supplements for the different primary cells (10 mM glucose, 2 mM L-glutamine, 1 mM pyruvate, 10% FBS; 1 mM glucose, 2 mM L-glutamine, 1 mM pyruvate, 10% FBS; 10 mM glucose, 10% FBS; 5 mM glucose 10% FBS; 1 mM glucose 10% FBS). Cells used in this example were: Propionic Acidemia (PA) (GM00371, GM03590 Coriell Institute for Medical Research, Tsi 6337, Tsi 4626, Tsi 3618 Trans-Hit Bio), Methylmalonic Acidemia (MMA) (GM01673, Coriell Institute for Medical Research, Tsi 5224 Trans-Hit Bio), Branched chain ketoacid dehydrogenase kinase (BCKDK) (GM00612, GM00649 Coriell Institute for Medical Research), Subnormal activation of pyruvate dehydrogenase complex (PDH) (GM01503 Coriell Institute for Medical Research), Very long-chain acyl-CoA dehydrogenase (VLCAD) (GM17475), Leigh Syndrome (LS) (GM03672, GM13411 Coriell Institute for Medical Research), Pyruvate Carboxylase Deficiency (PC) (GM00444 Coriell Institute for Medical Research), Glutaric Acidemia-I (GA) (GM10653), Friedreich's Ataxia (FXN) (GM04078 Coriell Institute for Medical Research, Huntington's disease (HD) (GM21756 Coriell Institute for Medical Research), Ornithine Transcarbamylase Deficiency (OTC) (GM12756 Coriell Institute for Medical Research), Kearns-Sayre Syndrome (KSS) (GM06225 Coriell Institute for Medical Research).
One hour before the assay, the cells were washed with freshly prepared unbuffered serum free-Seahorse XF Assay medium (Seahorse Bioscience, North America, USA, 103575-100) with the same supplements as for the previous 24 hour incubation.
After baseline measurements of OCR, cells were challenged with compounds of the present disclosure at different concentrations (10 to 50 μM) or vehicle (DMSO, 0.1%) and a post-compound baseline was recorded. OCR was measured after sequentially adding to each well 1 μg/ml oligomycin (inhibitor of ATP synthase Sigma-Aldrich, 753531), then maximal OCR was determined with carbonyl cyanide 4-(trifluoromethoxy) phenylhydrazone (FCCP, Sigma-Aldrich, C2920), (uncoupler of oxidative phosphorylation) and 0.5 μM of rotenone (Sigma-Aldrich, R8875) plus antimycin A (Sigma-Aldrich, A8674) (inhibitors of mitochondrial complex I and III) for determination of rotenone-antimycin insensitive respiration together with Hoechst for nuclear staining in situ when normalized to cell counts. After the analysis and nuclear staining, the XFp microplate was transferred to the Cytation 5, and the nuclear images were captured, the individual nuclei were identified and counted by BioTek Gen5 software. Data were expressed as pmol of O2 per minute and normalized by nuclear staining and baselined to pre-compound addition.
Assay conditions were as stated below.
Assay specifics on assay conditions are indicated below when readouts were normalized to cell counts. […]

For test [3], the system named is Leigh Syndrome (LS) primary fibroblasts GM03672. Nature of the test: NADP+/NADPH (NADP/NADPH-Glo), Leigh fibroblasts GM03672. The class given is cell-based. Particulars: Homo sapiens, Fibroblast, 24h, read-out: Increase in Total NADP+ + NADPH. The method, then: Primary adherent fibroblasts were cultured in minimum essential medium (MEM) (Gibco, 25030081) supplemented with 2 mM L-Glutamine (Gibco, 25030081), 15% fetal bovine serum (FBS) (Gibco, 26400044) and 1% penicillin/streptomycin (Gibco, 5140122) at 37° C. and 5% CO2. Cells were collected for either passaging or experiment at ˜70-80% confluence. Cells were obtained by trypsinization and seeded in cell culture microplates either white plate (Thermo Fisher Scientific, 152028) for luminescent measurement or black plate (Thermo Fisher Scientific, 165305) for fluorescent based read out for different assays listed below. Cells were obtained by trypsinization and […] were seeded and allowed to adhere for 16-18 hours to have confluency around 70-80% in the cell well with culture media. After 24 hours prior to measurements (37° C., 5% CO2) media was changed to Dulbecco's Modified Eagle Medium (DMEM, Agilent Seahorse cat #103575-100) with the appropriate supplements as stated below.
Primary fibroblasts assayed were Propionic Acidemia (PA) (GM03590 Coriell Institute for Medical Research, Tsi 6337 Trans-Hit Bio), Methylmalonic Acidemia (MMA) (Tsi 5224 Trans-Hit Bio), Subnormal activation of pyruvate dehydrogenase complex (PDH) (GM01503 Coriell Institute for Medical Research), Very long-chain acyl-CoA dehydrogenase (VLCAD) (GM17475), Leigh Syndrome (LS) (GM03672, GM13411 Coriell Institute for Medical Research), Pyruvate Carboxylase Deficiency (PC) (GM00444 Coriell Institute for Medical Research). 10 μM of Compounds were added for 2 hours in PA, MMA lines and for 24h for the other fibroblast lines.
Assay was performed according to manufacturer instructions (NADP+/NADPH-Glo Assay Promega, G9082). Assay required a plate for total measurement of NADP+/NADPH and a plate for individual measurement of NADP+ or NADPH. For every assay a 12-point standard curve is prepared ranging from 400 nM to 0.625 nM. Media is removed and replaced with 50 μl of PBS for both assays.
For individual NADP+/NADPH measurements, 50 μl of 1% DTAB (Sigma, D5047) (cell lysis reagent) in 0.2N NaOH was added to the plates and 100 μl of lysate was split into two plates with 50 μl each from which ratio of NADP/NADPH can be calculated. 25 μl of 0.4N HCl were added to the NADP+ plates and both NADP+ and NADPH plates were heated at 60° C. for 15 minutes. The acid and heat treatment destroyed NADPH allowing individual NADP+ measurements while heating in basic conditions destroys NADP+ allowing individual NADPH measurement. After 15 minutes plates were allowed to come to room temperature and Trizma base (Sigma, T1699) was added to the NADP+ plates to neutralize the acid and HCl Trizma hydrochloride (Sigma, T2694) was added to the NADPH plates. The NADNADPH glo reagent was prepared by adding 125 μl of NAD cycling substrate, 125 μl of reductase, 125 μl of reductase substrate, 125 μl NAD cycling enzyme to a total of the 25 ml of NAD GLO reagent. 1:1 ratio of total volume of reagent was added to the individual NADP+, NADPH measurements (total 100 μl) and 50 μl were added for the total NAD/NADPH measurements. Luminescence was measured for 30-60 minutes within the linear range.
A total dead cell count was performed as described in Example 817 and only alive cells were used for analysis.

Test [4] deals with Propionic Acidemia (PA) primary fibroblasts GM00371. Nature of the test: Mitochondrial respiration, XFe96 Extracellular Flux Analyzer (OCR/ECAR), PA fibroblasts GM00371. The class given is cell-based. Particulars: Homo sapiens, Fibroblast, read-out: Increase in Maximal Respiratory Capacity AUC.
In test [5] the test system is primary fibroblasts (healthy controls and PA, MMA, BCKDK, PDH, VLCAD, LS, PC, GA, VLCFA, KSS, FXN, HD). Put plainly: Measurement of ROS (H2DCFDA) in primary fibroblasts. The class given is cell-based, human. Particulars: Homo sapiens, Fibroblast; HD GM21756; procedure Example 812; Assay Condition C; read-out: Decreased ROS by at least 30%. The gist of the method:
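Patient and healthy-control primary fibroblasts switched to supplemented DMEM 24 h before assay, then treated with compound (10 μM) plus H2DCFDA (22 μM) for 2 h (PA, MMA lines) or 24 h (other lines). Kinetic fluorescence at 492/527 nm over 60 min; only live cells analysed.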

The test system of test [6] is Venular Endothelial cells (HUVEC) (4H system). Put plainly: BioMAP 4H system (IL-4 and histamine). The class given is cell-based, human. The note with it: 1 uM, procedure of Example 826.
In test [7] the test system is Bronchial epithelial cells co-cultured with dermal fibroblast (BF4T system). Put plainly: BioMAP BF4T system (TNFα and IL-4). The class given is cell-based, human. Particulars: Homo sapiens, 24 h; 10 uM; procedure of Example 830; read-out: % increase in VCAM-1.
Test [8] concerns Peripheral blood mononuclear cells co-cultured with B-cells (BT system). Nature of the test: cells. The note with it: Homo sapiens, 72 h, read-out: % increase in sIL-6.
The test system is the same in test [9]. The note with it: 1 uM; procedure of Example 829.
In test [10] the test system is Peripheral blood mononuclear cells co-cultured with venular endothelial cells (HUVEC) (LPS system). Put plainly: BioMAP LPS system. The class given is cell-based, human. Particulars: procedure of Example 827.
In test [11] the test system is Dermal fibroblasts (HDF3CGF system). Nature of the test: BioMAP HDF3CGF system (IL-1β, TNFα, IFNγ, EGF, bFGF, PDGF-BB). Particulars: 10 uM; procedure of Example 833. The class given is cell-based, human.

Molecules are shown by their SMILES. Where two headings read alike, the source gives them in different places.

Regarding `CCOC(=O)C(=O)SCCNC(=O)CCNC(=O)[C@H](O)C(C)(C)COP(=O)(O)O` [Compound 61], the inhibition at 50 µM in test [1] is at least 10%. Moreover, the activation at 50 µM in test [2] is at least 10%.
On to `CCC(=O)SCCNC(=O)CCNC(=O)[C@H](O)C(C)(C)CO` [Compound 398, (2R)-2,4-dihydroxy-3,3-dimethyl-N-(2-[[2-(propanoylsulfanyl)ethyl]carbamoyl]ethyl)butanamide], for which the activation at 10 µM in test [3] (Leigh GM03672 P9, assay condition A (10 mM glucose, 2 mM L-glutamine, 1 mM pyruvate, 10% FBS)) is at least 10%; in test [4] (assay condition D (1 mM glucose, 10% FBS), 10 μM) it was at least 10%. The inhibition at 10 µM in [5] is at least 30%.
In the case of `CC(C)(CO)[C@@H](O)C(=O)NCCC(=O)NCCSC(CC(=O)O)C(=O)O` (stereo partly drawn) [Compound 46, 2-[(2-[3-[(2R)-2,4-dihydroxy-3,3-dimethylbutanamido]propanamido]ethyl)sulfanyl]butanedioic acid], the “% increase in E-Selectin” value in test [6] is on record as at least 10%. In test [6] (Homo sapiens, HUVEC, 24 h, read-out: % decrease in E-Selectin), the inhibition at 1 µM is at least 10%. Further, the activation at 10 µM in [7] was at least 10%; in test [8] it was at least 10%; in test [10] (Homo sapiens, HUVEC, 24 h, 10 uM, read-out: % increase in sTNFα), at least 10%; in test [3] (Leigh GM03672 P8, assay condition B (1 mM glucose, 2 mM L-glutamine, 1 mM pyruvate, 10% FBS)), at least 10%. Also, in test [9], the “% decrease in B-cell proliferation” value was at least 20%. For the same compound, the “% decrease in sIL-2” value in test [9] was at least 20%. For the same compound, the “% decrease in sTNFα” value in test [9] was at least 20%. Further, in [10] (1 uM), the “% increase in sPGE2” value was at least 10%. Moreover, in [4] (assay condition C (10 mM glucose, 10% FBS), 50 μM), the activation at 50 µM is at least 10%. The “% decrease in Collagen I” value in test [11] is at least 10%.

These data come from US20230107216A1, “PANTETHEINE DERIVATIVES AND USES THEREOF” (Comet Therapeutics, Inc., priority 2018, published 2023).
